{
  "source": "patent US11578110B2",
  "about": "“Compounds for inducing tissue formation and uses thereof” (HISTIDE AG, priority 2015, dated 2023)",
  "key": {"[1]": {"assay": "Stability of non-covalent peptide coating on apatite ceramics / type-I collagen (fluorescent peptides)", "assay_type": "physicochemical", "settings": "non-covalent coating on apatite ceramics (SEQ ID NO: 23) or type-I collagen sponge (SEQ ID NO: 22); 3, 7 or 10 days", "experimental": "Non-covalent modifications of the materials were performed in Air Atmosphere at room temperature. The non-covalent coating strategy consisted in using a mixture of inducing peptide (SEQ ID NO: 23; concentration of 1×10^−3M) with an apatite ceramics implant or a mixture of inducing peptide (SEQ ID NO: 22; concentration of 1×10^−3M) with a type-I collagen sponge. The non-covalently coated conventional materials were characterized by using fluorescent peptides (Here SEQ ID NO: 22 and 23 covalently bound to fluorescein isothiocyanate (FITC), FIG. 6). The results shown here in FIG. 6 were obtained from experiments performed with apatite ceramics and a type-I collagen sponge. […] Indeed, after 3, 7 or 10 days, the osteogenic peptides were still coupled to the ceramics or the type-I collagen (FIGS. 7a and b)."}, "hMSCs": {"system": "hMSCs", "assay": "STRO-1 stemness marker expression in hMSCs (immunostaining, ImageJ quantification)", "assay_type": "cell-based, Human", "settings": "SEQ ID NO: 1 to 49 tested in combination with a bioactive carrier (titanium, ceramics, PEEK, hydrogel, etc.)", "how_it_was_run": "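hMSCs exposed to GFR-binding peptides in solution or grafted on surfaces; cells fixed in 4% paraformaldehyde, permeabilized, stained with Stro-1 antibody (1 h, 37° C) plus Alexa Fluor secondary and DAPI. Stro-1 positive contact number and area quantified by thresholded image analysis, at least 30 cells per condition.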"}, "[2]": {"system": "Human Mesenchymal Stem Cells (hMSCs)", "assay": "Osteogenic differentiation of human mesenchymal stem cells (Runx2, Osterix immunostaining, ALP activity)", "assay_type": "cell-based", "settings": "1 week, type-I collagen sponge coupled with peptide"}, "[3]": {"system": "mouse mesenchymal pre-osteoblastic cells (MC3T3-E1)", "assay": "Osteogenic differentiation of osteoblast progenitors (extracellular matrix, Osteopontin, Runx2 Q-PCR)", "assay_type": "cell-based", "settings": "48 hours", "experimental": "The surface profiler system is a non-contact optical profiler that measures a wide range of surface heights. The vertical scanning interferometry mode allows for the measurement of rough surfaces and steps of up to several micrometers. This mode was used in order to measure the thickness of the extracellular matrix produced by the cells. First, after 24 h of culture, the cells were fixed with paraformaldehyde in PBS (4%) for 30 minutes at 4° C. and the samples were dehydrated in increasing concentrations of ethanol (30, 70, 80, 90, 95 and 100%) and critical-point dried. To evaluate the extent of the newly synthesized extracellular matrix, a spatula was used to scratch the surface of the materials. The samples were then metallized for 10 sec with gold or titanium before being analyzed.\nTotal RNA was extracted by using the RNeasy total RNA kit (Qiagen®) according to the manufacturer's instructions. Purified total RNA was used as a template in order to make cDNA by a reverse transcription reaction (Gibco Brl®) with random primers (Invitrogen®). […] Data were analyzed with the iCycler IQ™® software and compared by the ΔΔCt method. […]\nThe effect of these GFR-binding compounds as defined herein (SEQ ID NO: 33) on the differentiation of osteoblast progenitors was evaluated. […]"}, "Neurons": {"system": "Neurons", "assay": "Neuron growth on modified titanium (dendrite growth, GAP43 Q-PCR)", "assay_type": "cell-based", "settings": "covalently modified titanium", "experimental": "Total RNA was extracted by using the RNeasy total RNA kit (Qiagen®) according to the manufacturer's instructions. Purified total RNA was used as a template in order to make cDNA by a reverse transcription reaction (Gibco Brl®) with random primers (Invitrogen®). The cDNA was then used as a template for a real-time PCR amplification in the presence of SYBR green reagents (Bio-Rad®) by using a thermocycler (iCycler, Biorad®). Data were analyzed with the iCycler IQ™® software and compared by the ΔΔCt method. Briefly, the mean Ct value of the target gene was normalized to its averaged Ct values of the housekeeping gene (HPRT) to give a ΔCt value, which was then normalized to a control sample to obtain a ΔΔCt value.\nNeurons were cultured on native titanium (control) and on titanium covalently modified with neurogenic peptides (SEQ ID NO: 49). […] To further confirm this the expression of the Growth Associated Protein 43 (GAP43) gene was verified for neuron cells cultured on materials covalently modified with neurogenic peptides (SEQ ID NO: 49)."}, "[4]": {"system": "Human umbilical-vein endothelial cells", "assay": "Endothelialization: adherent junctions (CD31) of HUVECs on modified PET", "assay_type": "cell-based", "settings": "36 hours, covalently modified PET", "experimental": "An increase in the area of the adherent junctions (CD31) was observed after 36 hours of culture on the covalently modified PET (FIG. 13)."}, "[5]": {"system": "Human umbilical-vein endothelial cells", "assay": "Angiogenesis: tube-like structure formation of HUVECs on modified PET", "assay_type": "cell-based", "settings": "18 hours, covalently modified PET"}, "Hair Follicle Stem Cells": {"system": "Hair Follicle Stem Cells", "assay": "Activation of hair follicle stem cells on modified hydrogels (Sox2, BMP-6 release)", "assay_type": "cell-based, Mouse", "settings": "hydrogel 73 kPa covalently modified"}},
  "data": [
    {"sequence": "WWFWGSAGPSSTPTKMSAISMLYL (WWFWGSAGPXXTPTKMSAISMLYL; GFR-binding peptide; MOD_RES (10)..(11): Xaa is C or S) [SEQ ID NO: 22]", "values": [
      {"measurement": "release of peptides over time", "setting": "[1]", "value": "no significant release"},
      {"measurement": "STRO-1 expression", "setting": "hMSCs", "value": 29, "unit": "%"}
    ]},
    {"sequence": "WWFWGAAPASSSVPTRLSPISVLYK (WWFWGAAPASXXVPTRLSPISVLYK; GFR-binding peptide; MOD_RES (11)..(12): Xaa is C or S) [SEQ ID NO: 32]", "values": [
      {"measurement": "ALP activity", "setting": "[2]", "value": "increase"},
      {"measurement": "STRO-1 expression", "setting": "hMSCs", "value": 27, "unit": "%"}
    ]},
    {"sequence": "GTPGPHVTKPTSVPTKLSAISMLYL (GTPGPHVTKPTXVPTKLSAISMLYL; GFR-binding peptide; MOD_RES (12)..(12): Xaa is C or S) [SEQ ID NO: 23]", "values": [
      {"measurement": "release of peptides over time", "setting": "[1]", "value": "no significant release"},
      {"measurement": "STRO-1 expression", "setting": "hMSCs", "value": 28, "unit": "%"}
    ]},
    {"sequence": "WWFWGKASKASSVPTKLSAISMLYL (WWFWGKASKAXXVPTKLSAISMLYL; GFR-binding peptide; MOD_RES (11)..(12): Xaa is C or S) [SEQ ID NO: 33]", "values": [
      {"measurement": "differentiation of osteoblast progenitors", "setting": "[3]; apatite ceramics or type-I collagen sponge coupled with peptide", "value": "differentiated into mature osteoblasts"},
      {"measurement": "production of extracellular matrix proteins such as Osteopontin (OPN)", "setting": "[3]; vs native type-I collagen sponge, immunofluorescence", "value": "extensive amounts"},
      {"measurement": "STRO-1 expression", "setting": "hMSCs", "value": 26, "unit": "%"}
    ]},
    {"sequence": "GIPEPSSVPAKMSPISILYI [SEQ ID NO: 49]", "values": [
      {"measurement": "cell-cell contacts via dendrite growth", "setting": "Neurons; 6 hours", "value": "rapid establishment"},
      {"measurement": "GAP43 gene expression", "setting": "Neurons; 48 hours, Q-PCR", "value": "high level of expression"},
      {"measurement": "STRO-1 expression", "setting": "hMSCs", "value": 19, "unit": "%"}
    ]},
    {"sequence": "STPPTSSSRVRLRSVKVAKV [SEQ ID NO: 38]", "values": [
      {"measurement": "area of the adherent junctions (CD31)", "setting": "[4]", "value": "increase"},
      {"measurement": "STRO-1 expression", "setting": "hMSCs", "value": 34, "unit": "%"}
    ]},
    {"sequence": "KVGKASSVPTKLSNITMQIM [SEQ ID NO: 39]", "values": [
      {"measurement": "formation of tube-like structures", "setting": "[5]", "value": "observed"},
      {"measurement": "STRO-1 expression", "setting": "hMSCs", "value": 32, "unit": "%"}
    ]},
    {"sequence": "AASKASSVPEKLSSLSILFF [SEQ ID NO: 41]", "values": [
      {"measurement": "BMP-6 release in the cell culture medium", "setting": "Hair Follicle Stem Cells", "value": "decrease"},
      {"measurement": "Sox2 protein expression", "setting": "Hair Follicle Stem Cells", "value": "increase"},
      {"measurement": "STRO-1 expression", "setting": "hMSCs", "value": 28, "unit": "%"}
    ]}
  ]
}
